Data published in patent US9227967B2, “Inhibitor compounds of semicarbazide-sensitive amine oxidases” (Proximagen Limited, priority 2010, dated 2016).
Where a name gives a salt, the structure may show the parent alone.

What follows are compounds tested against T1, human SSAO (Homo sapiens, UniProt Q16853) (assay: SSAO enzyme inhibition assay (benzylamine substrate; HRP-coupled hydrogen peroxide detection or 14C-benzaldehyde detection)). Settings: purified recombinantly expressed human SSAO, benzylamine as substrate, r.t.; read-out: SSAO inhibitory activity IC50.
T1 construct: made in house
T1 sequence (Q16853 29-763 limits assumed): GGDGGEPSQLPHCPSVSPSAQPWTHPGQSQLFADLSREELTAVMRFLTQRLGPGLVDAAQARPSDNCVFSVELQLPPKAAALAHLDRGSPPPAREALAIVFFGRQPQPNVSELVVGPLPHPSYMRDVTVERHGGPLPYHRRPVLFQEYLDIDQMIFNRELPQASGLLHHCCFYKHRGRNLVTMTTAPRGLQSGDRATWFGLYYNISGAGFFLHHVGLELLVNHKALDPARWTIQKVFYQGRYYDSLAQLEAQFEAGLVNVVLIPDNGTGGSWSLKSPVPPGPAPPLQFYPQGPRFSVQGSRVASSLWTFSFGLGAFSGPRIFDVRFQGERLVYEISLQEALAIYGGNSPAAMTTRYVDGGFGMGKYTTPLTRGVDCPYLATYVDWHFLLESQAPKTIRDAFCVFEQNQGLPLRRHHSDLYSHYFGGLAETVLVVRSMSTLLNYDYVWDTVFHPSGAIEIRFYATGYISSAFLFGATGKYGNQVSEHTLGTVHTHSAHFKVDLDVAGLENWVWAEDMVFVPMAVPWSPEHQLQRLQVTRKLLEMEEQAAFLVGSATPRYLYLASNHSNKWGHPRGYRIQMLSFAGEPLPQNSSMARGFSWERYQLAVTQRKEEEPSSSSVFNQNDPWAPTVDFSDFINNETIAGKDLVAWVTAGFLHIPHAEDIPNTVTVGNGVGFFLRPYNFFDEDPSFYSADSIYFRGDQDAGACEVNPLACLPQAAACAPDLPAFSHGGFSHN
Type: biochemical
Procedure: All primary assays were performed at r.t. with purified recombinantly expressed human SSAO. Enzyme was prepared essentially as described in Öhman et al. (Protein Expression and Purification 46 (2006) 321-331). In addition, secondary- and selectivity assays were performed using SSAO prepared from various tissues or purified rat recombinant SSAO. The enzyme activity was assayed with benzylamine as substrate by measuring either benzaldehyde production, using ^14C-labeled substrate, or by utilizing the production of hydrogen peroxide in a horseradish peroxidise (HRP) coupled reaction. Briefly, test compounds were dissolved in dimethyl sulfoxide (DMSO) to a concentration of 10 mM. Dose-response measurements were assayed by either creating 1:10 serial dilutions in DMSO to produce a 7 point curve or by making 1:3 serial dilutions in DMSO to produce 11 point curves. The top concentrations were adjusted depending on the potency of the compounds and subsequent dilution in reaction buffer yielded a final DMSO concentration ≦2%.
In a horseradish peroxidise (HRP) coupled reaction, hydrogen peroxide oxidation of 10-acetyl-3,7-dihydroxyphenoxazine produced resorufin, which is a highly fluorescent compound (Zhout and Panchuk-Voloshina. Analytical Biochemistry 253 (1997) 169-174; Amplex® Red Hydrogen Peroxide/peroxidise Assay kit, Invitrogen A22188). Enzyme and compounds in 50 mM sodium phosphate, pH 7.4 were set to pre-incubate in flat-bottomed microtiter plates for approximately 15 minutes before initiating the reaction by addition of a mixture of HRP, benzylamine and Amplex reagent. Benzylamine concentration was fixed at a concentration corresponding to the Michaelis constant, determined using standard procedures. Fluorescence intensity was then measured at several time points during 1-2 hours, exciting at 544 nm n and reading the emission at 590 nm. For the human SSAO assay final concentrations of the reagents in the assay wells were: SSAO enzyme 1 μg/ml, benzylamine 100 μM, Amplex reagent 20 μM, HRP 0.1 U/mL and varying concentrations of test compound. The inhibition was measured as % decrease of the signal compared to a control without inhibitor (only diluted DMSO). The background signal from a sample containing no SSAO enzyme was subtracted from all data points. Data was fitted to a four parameter logistic model and IC50 values were calculated using the GraphPad Prism 4 or XLfit 4 programs.
SSAO activity was assayed using 14C-labeled benzylamine and analysed by measuring radioactive benzaldehyde. In a white 96-well optiplate (Packard), 20 μL of diluted test compound was pre-incubated at r.t. with 20 μL SSAO enzyme for approximately 15 minutes with continuous agitation. All dilutions were made with PBS. The reaction was initiated by adding 20 μL of the benzylamine substrate solution containing [7-14C] Benzylamine hydrochloride (CFA589, GE Healthcare). The plate was incubated for 1 hour as above after which the reaction was stopped by acidification (10 μL 1 M HCl). Then 90 μL Micro Scint-E solution (Perkin-Elmer) was added to each well and the plate was continuously mixed for 15 minutes. Phase separation occurred instantly and activity was read in a Topcount scintillation counter (Perkin-Elmer). In the final reaction well, human recombinant SSAO concentration was 10 μg/ml. In order to optimize sensitivity, the substrate concentration was decreased as compared to the HRP coupled assay in order to get a higher fraction of radioactive product. In the human SSAO assay, benzylamine concentration was 40 μM (0.2 μCi/mL). Data was analysed as above.
In the case of Cc1ccc(-n2nc(N3CCOCC3C(=O)NCCN)c3ccncc32)cc1 (stereo not shown) [Compound 79, N-(2-Aminoethyl)-4-[1-(4-methylphenyl)-1H-pyrazolo[3,4-c]pyridin-3-yl]morpholine-3-carboxamide dihydrochloride], the IC50 is reported as 100 to 500 nM.
Clc1ccc(-n2cc(C3CCOCC3)c3ncncc32)cc1 [Compound 98, 5-(4-Chlorophenyl)-7-(oxan-4-yl)-5H-pyrrolo[3,2-d]pyrimidine] was tested, and the IC50 was 100 to 500 nM.
For CC(C)(C)OC(=O)NC1CCC(c2cn(-c3ccc(Cl)cc3)c3cnccc23)CC1 (stereo not shown) [Compound 11, tert-Butyl N-{4-[1-(4-chlorophenyl)-1H-pyrrolo[2,3-c]pyridin-3-yl]cyclohexyl}-carbamate], the IC50 was 100 to 500 nM.
Work on N#CCCN1CCC(c2cn(-c3ccc(Cl)cc3)c3cnccc23)CC1 [Compound 21, 3-{4-[1-(4-Chlorophenyl)-1H-pyrrolo[2,3-c]pyridine-3-yl]piperidin-1-yl}propanenitrile hydrochloride] yielded an IC50 of 100 to 500 nM.
Clc1ccc(-c2cn(C3CCOCC3)c3ccncc23)cc1 [Compound 4, 3-(4-Chlorophenyl)-1-(oxan-4-yl)-1H-pyrrolo[3,2-c]pyridine] gave an IC50 of 100 to 500 nM.
For N#CCCCN1CCC(c2cn(-c3ccc(Cl)cc3)c3cnccc23)CC1 [Compound 22, 4-{4-[1-(4-Chlorophenyl)-1H-pyrrolo[2,3-c]pyridin-3-yl]piperidin-1-yl}butanenitrile hydrochloride], the IC50 was 100 to 500 nM.
Cn1cc(CN2CCC(c3cn(-c4ccc(Cl)cc4)c4cnccc34)CC2)cn1 [Compound 20, 4-[1-(4-Chlorophenyl)-1H-pyrrolo[2,3-c]pyridin-3-yl]-1-[(1-methyl-1H-pyrazol-4-yl)-methyl]piperidine] showed an IC50 of 100 to 500 nM.
Clc1ccc(-n2cc(C3CCNCC3)c3ccncc32)cc1 [Compound 10, 1-(4-Chlorophenyl)-3-piperidin-4-yl-1H-pyrrolo[2,3-c]pyridine trifluoroacetate] was tested, and the IC50 was 100 to 500 nM.
Clc1ccc(-n2cc(C3CCN(Cc4cc[nH]n4)CC3)c3ccncc32)cc1 [Compound 19, 4-[1-(4-Chlorophenyl)-1H-pyrrolo[2,3-c]pyridin-3-yl]-1-(1H-pyrazol-3-ylmethyl)-piperidine] showed an IC50 of 100 to 500 nM.
In the case of Cc1ccc(-n2c(C)c(C3=CCOCC3)c3ccncc32)cc1 [Compound 107, 3-(3,6-Dihydro-2H-pyran-4-yl)-2-methyl-1-(4-methylphenyl)-1H-pyrrolo[2,3-c]pyridine], the IC50 is reported as under 100 nM.
Work on Fc1ccc(-n2nc(C3CCOCC3)c3ccncc32)cc1 [Compound 83, 1-(4-Fluorophenyl)-3-(oxan-4-yl)-1H-pyrazolo[3,4-c]pyridine] yielded an IC50 of 100 to 500 nM.
For Clc1ccc(-n2nc(C3CCNCC3)c3ccncc32)cc1 [Compound 84, 4-[1-(4-Chlorophenyl)-1H-pyrazolo[3,4-c]pyridin-3-yl]piperidine], the IC50 was 100 to 500 nM.
Cc1ccc(-n2nc(N3CCNC(=O)C3)c3ccncc32)cc1 [Compound 68, 4-[1-(4-Methylphenyl)-1H-pyrazolo[3,4-c]pyridin-3-yl]piperazin-2-one] showed an IC50 of under 100 nM.
NCC(=O)N1CCC(c2cn(-c3ccc(Cl)cc3)c3cnccc23)CC1 [Compound 16, 2-Amino-{4-[1-(4-chlorophenyl)-1H-pyrrolo[2,3-c]pyridin-3-yl]piperidin-1-yl}-ethan-1-one hydrochloride] gave an IC50 of under 100 nM.
Clc1ccc(-n2cc(CN3CCNCC3)c3ccncc32)cc1 [Compound 26, 1-{[1-(4-Chlorophenyl)-1H-pyrrolo[2,3-c]pyridin-3-yl]methyl}piperazine] showed an IC50 of 500 to 2500 nM.
Clc1ccc(-n2cc(N3CCOCC3)c3ccncc32)cc1 [Compound 104, 4-[1-(4-Chlorophenyl)-1H-pyrrolo[2,3-c]pyridin-3-yl]morpholine 2,2,2-trifluoroacetic acid] gave an IC50 of under 100 nM.
Cc1ccc(-n2nc(N3CCOCC3(C)C)c3ccncc32)cc1 [Compound 65] was tested, and the IC50 was 100 to 500 nM.
Clc1ccc(-n2cc(C3=CCNCC3)c3ccncc32)cc1 [Compound 8, 4-[1-(4-Chlorophenyl)-1H-pyrrolo[2,3-c]pyridin-3-yl]-hydrochloride] showed an IC50 of 100 to 500 nM.
Cc1ccc(-n2nc(N3CCOC(CN)C3)c3ccncc32)cc1 (stereo not shown) [Compound 72, {4-[1-(4-Methylphenyl)-1H-pyrazolo[3,4-c]pyridin-3-yl]morpholin-2-yl}methanamine] showed an IC50 of 100 to 500 nM.
Work on OCC1CCN(Cc2cn(-c3ccc(Cl)cc3)c3cnccc23)CC1 [Compound 28, (1-{[1-(4-Chlorophenyl)-1H-pyrrolo[2,3-c]pyridin-3-yl]methyl}piperidin-4-yl)methanol] yielded an IC50 of 100 to 500 nM.
CN(C)CC(=O)N1CCC(c2cn(-c3ccc(Cl)cc3)c3cnccc23)CC1 [Compound 14, 1-{4-[1-(4-Chlorophenyl)-1H-pyrrolo[2,3-c]pyridin-3-yl]piperidin-1-yl}-2-(dimethyl-amino)ethan-1-one] was tested, and the IC50 was 100 to 500 nM.
OC1CCN(c2nn(-c3ccc(Cl)cc3)c3cnccc23)C1 (stereo not shown) [Compound 49, 1-[1-(4-Chlorophenyl)-1H-pyrazolo[3,4-c]pyridin-3-yl]pyrrolidin-3-ol] was tested, and the IC50 was under 100 nM.
Cc1ccc(-n2nc(N3CCOCC3)c3ccncc32)c(F)c1 [Compound 58, 4-[1-(2-Fluoro-4-methylphenyl)-1H-pyrazolo[3,4-c]pyridin-3-yl]morpholine] showed an IC50 of under 100 nM.
For Cc1ccc(-n2nc(C3CCOCC3)c3ccncc32)nc1 [Compound 46, 5-Methyl-2-[3-(oxan-4-yl)-1H-pyrazolo[3,4-c]pyridin-1-yl]pyridine], the IC50 was 500 to 2500 nM.
OCCNCc1cn(-c2ccc(Cl)cc2)c2cnccc12 [Compound 31, 2-({[1-(4-Chlorophenyl)-1H-pyrrolo[2,3-c]pyridin-3-yl]methyl}amino)ethan-1-ol] was tested, and the IC50 was 500 to 2500 nM.
Compound Oc1cncc2c1c(C1CCOCC1)nn2-c1ccc(Cl)cc1 [Compound 95, 1-(4-Chlorophenyl)-3-(oxan-4-yl)-1H-pyrazolo[3,4-c]pyridin-4-ol] has an IC50 of 100 to 500 nM.
In the case of Fc1ccc(-n2cc(C3CCOCC3)c3ccncc32)cc1 [Compound 100, 1-(4-Fluorophenyl)-3-(oxan-4-yl)-1H-pyrrolo[2,3-c]pyridine], the IC50 is reported as 100 to 500 nM.
For Clc1ccc(-n2cc(C3CCOCC3)c3ccncc32)nc1 [Compound 103, 5-Chloro-2-[3-(oxan-4-yl)-1H-pyrrolo[2,3-c]pyridin-1-yl]pyridine], the IC50 was 100 to 500 nM.
OCc1cn(-c2ccc(Cl)cc2)c2cnccc12 [Compound 23, [1-(4-Chlorophenyl)-1H-pyrrolo[2,3-c]pyridin-3-yl]methanol] was tested, and the IC50 was 500 to 2500 nM.
With FC1(F)CCN(c2nn(-c3ccc(Cl)cc3)c3cnccc23)CC1 [Compound 52, 1-[1-(4-Chlorophenyl)-1H-pyrazolo[3,4-c]pyridin-3-yl]-4,4-difluoropiperidine] the IC50 was 100 to 500 nM.
CCOC(=O)N1CCC(c2nn(-c3ccc(Cl)cc3)c3cnccc23)CC1 [Compound 92, Ethyl 4-[1-(4-chlorophenyl)-1H-pyrazolo[3,4-c]pyridin-3-yl]piperidine-1-carboxylate] showed an IC50 of 100 to 500 nM.
